Earlier results on one substance are cited in patent US5629294A, “Compositions and methods for preventing adhesion formation” (University of Southern California, priority 1994, dated 1997).

The test system of data set [1] is platelet accumulation associated with the administration of a collagen substrate and ADP. The note with it: baboon model, RGDV given at 0.35, 0.68 or 1.31 μmol/min.
Data set [2] deals with platelet aggregation in response to ADP and collagen.

In the case of RGDV, in data set [1], the platelet accumulation result is given as “dose-dependent reduction in platelet accumulation”. For the same substance, the “concentration necessary to effectively abolish platelet aggregation” value in data set [2] was 100 µM.
